# Reference: US8492310B2, “Herbicidal compositions containing benzoylpyrazole compounds” (priority 2008, dated 2013)
# Where two headings read alike, the source gives them in different places.
# Assays:
# Assay type in all cases: in vivo
# [1] = system: velvetleaf (Abutilon theophrasti MEDIC.); test: Foliar treatment pot test, visual growth inhibition rate, velvetleaf (AT)
# Text: (§1) When the herbicidal activity in a case where two active ingredients are combined, is larger than the simple sum of the respective herbicidal activities of the two active ingredients (the expected activity), it is called a synergistic effect. The activity expected by the combination of two active ingredients can be calculated as follows (Colby S. R., “Weed”, vol. 15, p. 20-22, 1967). E=α+β−(α×β÷100) where
# (§2) Upland field soil was put into a 1/1,000,000 hectare pot, and seeds of various plants (barnyardgrass (Echinochloa crus-qalli L.), crabgrass (Digitaria sanguinalis L.), giant foxtail (Setaria faberi Herrm.), velvetleaf (Abutilon theophrasti MEDIC.) and prickly sida (Sida spinosa L.)) were sown. When the respective plants reached predetermined leaf stage, herbicidal compositions in predetermined amounts were diluted with water in an amount corresponding to 300 L/ha and applied for foliar treatment by a small sprayer.
# (§3) Further, in accordance with the above Colby's formula, the growth inhibition rate (calculated value) was calculated. In Tables, with respect to the compound Q, Compound Nos. in Table 1 are described, and with respect to other herbicidal compounds, common names are described. Further, in Tables, barnyardgrass is represented by “EC”, crabgrass by “DS”, giant foxtail by “SF”, velvetleaf by “AT”, and prickly sida by “SS”.
# [2] = system: prickly sida (Sida spinosa L.); test: Foliar treatment pot test, visual growth inhibition rate, prickly sida (SS); settings: for inhibition at 15 g/ha: 1.5-2.4 leaf stage
# Text: as §1, §2, §3
# [3] = system: crabgrass (Digitaria sanguinalis L.); test: Foliar treatment pot test, visual growth inhibition rate, crabgrass (DS)
# Text: as §1, §2, §3
# [4] = system: barnyardgrass (Echinochloa crus-qalli L.); test: Foliar treatment pot test, visual growth inhibition rate, barnyardgrass (EC); settings: 4.0-5.0 leaf stage, read-out: Growth inhibition rate (%) of EC Measured value
# Text: as §1, §2, §3
# [5] = Abutilon theophrasti, foliar, 552 h, 3.0-4.2 leaf stage, 23 DAT, read-out: Growth inhibition rate (%) of AT Measured value
# [6] = Digitaria sanguinalis, foliar, 552 h, 4.5-5.3 leaf stage, 23 DAT, read-out: Growth inhibition rate (%) of DS Measured value
# [7] = Abutilon theophrasti, foliar, 480 h, 4.2-4.3 leaf stage, 20 DAT, read-out: Growth inhibition rate (%) of AT Measured value
# [8] = Digitaria sanguinalis, foliar, 480 h, 4.5-5.2 leaf stage, 20 DAT, read-out: Growth inhibition rate (%) of DS Measured value
# [9] = Abutilon theophrasti, foliar, 480 h, 4.0-4.2 leaf stage, 20 DAT, read-out: Growth inhibition rate (%) of AT Measured value
# [10] = Digitaria sanguinalis, foliar, 480 h, 3.7-4.0 leaf stage, 20 DAT, read-out: Growth inhibition rate (%) of DS Measured value
# [11] = Abutilon theophrasti, foliar, 528 h, 3.3-3.8 leaf stage, 22 DAT, read-out: Growth inhibition rate (%) of AT Measured value
structure (smiles),measurement,setting,value
"CCCCCCCC(=O)Oc1c(Br)cc(C#N)cc1Br [Bromoxynil-octanoate, bromoxynil-octanoate]",inhibition at 63 g/ha,"[1]; Abutilon theophrasti, foliar, 504 h, 3.0-3.5 leaf stage, 21 DAT, 63 g/ha, read-out: Growth inhibition rate (%) of AT Measured value",10%
same,inhibition at 100 g/ha,"[1]; Abutilon theophrasti, foliar, 528 h, 4.0-4.3 leaf stage, 22 DAT, read-out: Growth inhibition rate (%) of AT Measured value",25%
same,inhibition at 30 g/ha,[1]; [5],0%
same,inhibition at 60 g/ha,[1]; [5],0%
same,inhibition at 120 g/ha,[1]; [5],0%
same,inhibition at 200 g/ha,"[1]; Abutilon theophrasti, foliar, 576 h, 3.2-4.1 leaf stage, 24 DAT, 200 g/ha, read-out: Growth inhibition rate (%) of AT Measured value",100%
same,inhibition at 25 g/ha,"[2]; Sida spinosa, foliar, 528 h, 3.0-3.3 leaf stage, 22 DAT, 25 g/ha, read-out: Growth inhibition rate (%) of SS Measured value",40%
same,inhibition at 50 g/ha,"[2]; Sida spinosa, foliar, 528 h, 3.0-3.3 leaf stage, 22 DAT, read-out: Growth inhibition rate (%) of SS Measured value",50%
same,inhibition at 100 g/ha,"[2]; Sida spinosa, foliar, 528 h, 3.0-3.3 leaf stage, 22 DAT, 100 g/ha, read-out: Growth inhibition rate (%) of SS Measured value",50%
same,inhibition at 63 g/ha,"[3]; Digitaria sanguinalis, foliar, 336 h, 4.0-5.0 leaf stage, 14 DAT, read-out: Growth inhibition rate (%) of DS Measured value",0%
same,inhibition at 63 g/ha,"[3]; Digitaria sanguinalis, foliar, 504 h, 4.0-5.1 leaf stage, 21 DAT, read-out: Growth inhibition rate (%) of DS Measured value",0%
same,inhibition at 77 g/ha,"[3]; Digitaria sanguinalis, foliar, 528 h, 3.1-4.0 leaf stage, 22 DAT, 77 g/ha, read-out: Growth inhibition rate (%) of DS Measured value",0%
same,inhibition at 30 g/ha,"[3]; Digitaria sanguinalis, foliar, 552 h, 4.5-5.3 leaf stage, 23 DAT, 30 g/ha, read-out: Growth inhibition rate (%) of DS Measured value",25%
same,inhibition at 60 g/ha,[3]; [6],10%
same,inhibition at 120 g/ha,[3]; [6],45%
"COc1c(Cl)ccc(Cl)c1C(=O)O [Dicamba, dicamba]",inhibition at 100 g/ha,"[1]; Abutilon theophrasti, foliar, 312 h, 3.3-4.2 leaf stage, 13 DAT, read-out: Growth inhibition rate (%) of AT Measured value",35%
same,inhibition at 25 g/ha,[1]; [7],25%
same,inhibition at 50 g/ha,[1]; [7],35%
same,inhibition at 100 g/ha,[1]; [7],43%
same,inhibition at 100 g/ha,"[1]; Abutilon theophrasti, foliar, 504 h, 3.5-4.3 leaf stage, 21 DAT, read-out: Growth inhibition rate (%) of AT Measured value",55%
same,inhibition at 60 g/ha,[1]; [5],0%
same,inhibition at 120 g/ha,[1]; [5],0%
same,inhibition at 200 g/ha,"[4]; 336 h, 14 DAT, 200 g/ha",0%
same,inhibition at 100 g/ha,"[3]; Digitaria sanguinalis, foliar, 312 h, 4.4-5.0 leaf stage, 13 DAT, read-out: Growth inhibition rate (%) of DS Measured value",0%
same,inhibition at 25 g/ha,[3]; [8],0%
same,inhibition at 50 g/ha,[3]; [8],0%
same,inhibition at 100 g/ha,[3]; [8],0%
same,inhibition at 200 g/ha,"[3]; Digitaria sanguinalis, foliar, 504 h, 5.0-5.5 leaf stage, 21 DAT, 200 g/ha, read-out: Growth inhibition rate (%) of DS Measured value",0%
same,inhibition at 60 g/ha,[3]; [6],55%
same,inhibition at 120 g/ha,[3]; [6],75%
CS(=O)(=O)c1ccc(C(=O)C2C(=O)CCCC2=O)c([N+](=O)[O-])c1 [Mesotrione],inhibition at 25 g/ha,[1]; [9],23%
same,inhibition at 50 g/ha,[1]; [9],35%
same,inhibition at 12.5 g/ha,"[1]; Abutilon theophrasti, foliar, 480 h, 4.1-4.2 leaf stage, 20 DAT, 12.5 g/ha, read-out: Growth inhibition rate (%) of AT Measured value",75%
same,inhibition at 25 g/ha,"[1]; Abutilon theophrasti, foliar, 480 h, 4.1-4.2 leaf stage, 20 DAT, read-out: Growth inhibition rate (%) of AT Measured value",94%
same,inhibition at 15 g/ha,"[1]; Abutilon theophrasti, foliar, 576 h, 3.2-4.1 leaf stage, 24 DAT, read-out: Growth inhibition rate (%) of AT Measured value",88%
same,inhibition at 15 g/ha,"[4]; 504 h, 21 DAT, 15 g/ha",5%
same,inhibition at 25 g/ha,[3]; [10],55%
same,inhibition at 50 g/ha,[3]; [10],83%
same,inhibition at 12.5 g/ha,"[3]; Digitaria sanguinalis, foliar, 480 h, 5.1-5.2 leaf stage, 20 DAT, 12.5 g/ha, read-out: Growth inhibition rate (%) of DS Measured value",80%
"COc1cc(OC)nc(NC(=O)NS(=O)(=O)c2ncccc2C(=O)N(C)C)n1 [Nicosulfuron, nicosulfuron]",inhibition at 5 g/ha,"[1]; Abutilon theophrasti, foliar, 480 h, 3.1-3.4 leaf stage, 20 DAT, 5 g/ha, read-out: Growth inhibition rate (%) of AT Measured value",10%
same,inhibition at 7 g/ha,"[1]; Abutilon theophrasti, foliar, 504 h, 3.8-4.4 leaf stage, 21 DAT, read-out: Growth inhibition rate (%) of AT Measured value",30%
same,inhibition at 40 g/ha,"[1]; Abutilon theophrasti, foliar, 504 h, 4.0-4.5 leaf stage, 21 DAT, 40 g/ha, read-out: Growth inhibition rate (%) of AT Measured value",65%
same,inhibition at 60 g/ha,"[1]; Abutilon theophrasti, foliar, 504 h, 4.0-4.5 leaf stage, 21 DAT, read-out: Growth inhibition rate (%) of AT Measured value",70%
same,inhibition at 80 g/ha,"[1]; Abutilon theophrasti, foliar, 504 h, 4.0-4.5 leaf stage, 21 DAT, 80 g/ha, read-out: Growth inhibition rate (%) of AT Measured value",83%
same,inhibition at 7 g/ha,[1]; [11],45%
same,inhibition at 15 g/ha,[1]; [11],60%
same,inhibition at 30 g/ha,[1]; [11],70%
same,inhibition at 10 g/ha,"[1]; Abutilon theophrasti, foliar, 528 h, 4.0-4.4 leaf stage, 22 DAT, 10 g/ha, read-out: Growth inhibition rate (%) of AT Measured value",40%
same,inhibition at 15 g/ha,"[2]; Sida spinosa, foliar, 480 h, 20 DAT, read-out: Growth inhibition rate (%) of SS Measured value",45%
same,inhibition at 15 g/ha,"[2]; Sida spinosa, foliar, 504 h, 21 DAT, read-out: Growth inhibition rate (%) of SS Measured value",45%
same,inhibition at […],"[2]; Sida spinosa, foliar, 504 h, 2.1 to 3.1 leaf stage, 21 DAT, 2.5 g/ha, read-out: Growth inhibition rate (%) of SS Measured value",0%
same,inhibition at 5 g/ha,"[2]; Sida spinosa, foliar, 504 h, 2.1 to 3.1 leaf stage, 21 DAT, 5 g/ha, read-out: Growth inhibition rate (%) of SS Measured value",0%
same,inhibition at 10 g/ha,"[2]; Sida spinosa, foliar, 504 h, 2.1 to 3.1 leaf stage, 21 DAT, 10 g/ha, read-out: Growth inhibition rate (%) of SS Measured value",10%
same,inhibition at 20 g/ha,"[2]; Sida spinosa, foliar, 504 h, 2.1 to 3.1 leaf stage, 21 DAT, 20 g/ha, read-out: Growth inhibition rate (%) of SS Measured value",40%
same,inhibition at 30 g/ha,"[2]; Sida spinosa, foliar, 504 h, 2.1 to 3.1 leaf stage, 21 DAT, 30 g/ha, read-out: Growth inhibition rate (%) of SS Measured value",50%
same,inhibition at 50 g/ha,"[2]; Sida spinosa, foliar, 504 h, 2.1 to 3.1 leaf stage, 21 DAT, read-out: Growth inhibition rate (%) of SS Measured value",70%
same,inhibition at 5 g/ha,"[3]; Digitaria sanguinalis, foliar, 336 h, 3.5-4.3 leaf stage, 14 DAT, 5 g/ha, read-out: Growth inhibition rate (%) of DS Measured value",15%
same,inhibition at 10 g/ha,"[3]; Digitaria sanguinalis, foliar, 504 h, 3.5 to 4.3 leaf stage, 21 DAT, 10 g/ha, read-out: Growth inhibition rate (%) of DS Measured value",30%
same,inhibition at 20 g/ha,"[3]; Digitaria sanguinalis, foliar, 504 h, 4.5-5.1 leaf stage, 21 DAT, 20 g/ha, read-out: Growth inhibition rate (%) of DS Measured value",50%
same,inhibition at 80 g/ha,"[3]; Digitaria sanguinalis, foliar, 504 h, 4.5-5.1 leaf stage, 21 DAT, 80 g/ha, read-out: Growth inhibition rate (%) of DS Measured value",94%
"CCc1cccc(C)c1N(C(=O)CCl)[C@@H](C)COC [S-Metolachlor, S-metolachlor]",Growth inhibition rate (%) of AT Measured value,"[1]; 3.0-3.5 leaf stage, 21 DAT, 300 g/ha",0%
same,Growth inhibition rate (%) of AT Measured value,"[1]; 3.0-3.8 leaf stage, 21 DAT, 400 g/ha",0%
same,Growth inhibition rate (%) of AT Measured value,"[1]; 3.0-4.0 leaf stage, 14 DAT, 150 g/ha",0%
same,Growth inhibition rate (%) of AT Measured value,"[1]; 4.6-5.3 leaf stage, 14 DAT, 1200 g/ha",0%
same,Growth inhibition rate (%) of SS Measured value,"[2]; 3.0-3.3 leaf stage, 21 DAT, 800 g/ha",20%
same,Growth inhibition rate (%) of DS Measured value,"[3]; 3.5-4.3 leaf stage, 21 DAT, 400 g/ha",0%
same,Growth inhibition rate (%) of DS Measured value,"[3]; 4.0-5.0 leaf stage, 14 DAT, 150 g/ha",0%
same,Growth inhibition rate (%) of DS Measured value,"[3]; 4.0-5.1 leaf stage, 21 DAT, 300 g/ha",0%
same,Growth inhibition rate (%) of DS Measured value,"[3]; 5.0-6.0 leaf stage, 14 DAT, 800 g/ha",0%
